{"source": "patent US20220047527A1", "about": "“FOOD-AND-DRINK COMPOSITION CONTAINING ASTAXANTHIN” (AstaReal Co., Ltd., priority 2016, published 2022)", "key": {"[1]": {"system": "human having a sense of fatigue", "assay": "VAS (Visual Analog Scale) analysis before/after mental and physical loads", "format": "in vivo", "settings": "for VAS, Clear-headedness (FIG. 5) / VAS, Concentration (FIG. 5) / VAS, Feeling of body heaviness (FIG. 5) / VAS, Frustration (FIG. 5) / VAS, Mood (FIG. 5) / VAS, Motivation (FIG. 5): vs control group", "procedure": "(§1) A placebo-controlled, randomized, double-blind, parallel-group study was employed for ingestion of the test food, and two groups, namely, the control group (placebo group) with ingestion of a capsule not containing astaxanthin and the astaxanthin group with ingestion of a capsule containing 6 mg of astaxanthin (120 mg of Haematococcus algae extract and 10 mg of tocotrienol mixture derived from palm oil) were compared through a double-blind method. For ingestion of the test food, the subjects were instructed to ingest one capsule twice daily (total 12 mg of astaxanthin (240 mg of Haematococcus algae extract and 20 mg of tocotrienol mixture derived from palm oil) in two capsules per day), one after breakfast (or after the first meal of the day if no breakfast was taken) and the other after dinner, with water or lukewarm water within 30 min of eating. The overall duration for ingestion was 8 weeks (12 weeks only for the OSA sleep analysis). The subjects were also instructed to record their test food ingestion, drinking, and exercise in a diary every day, from the first day to the last day of ingestion.\nThe assessment to the subjects consisted of seven questions: “Sense of Fatigue (“sense of fatigue caused by mental load” or “sense of fatigue caused by mental load and physical load”) (best sensation with no fatigue—worst sensation of being too tired to do anything)”, “Clear-headedness (very clear—very dull)”, “Concentration (able to concentrate very easily—unable to concentrate at all)”, “Motivation (highly motivated—totally unmotivated)”, “Mood (very happy—as depressed as I can be)”, “Frustration (not frustrated at all—very frustrated)”, and “Feeling of body heaviness (feeling my body is very light—feeling my body is very heavy)”. For each question, the subjects were instructed to draw a vertical line by intuition on a 100 mm horizontal line to indicate their condition at the time, with the far left end indicating the best condition and the far right end indicating the worst condition. A VAS score was derived by measuring with a ruler the distance from the far left end to the intersection with the vertical line. VAS analysis was performed five times in total in one day: in the morning of the day of assessment (before load application), after application of a physical load and a mental load, at the end of the assessment visit (after a rest period), after mental load application (calculation load; Uchida-Kraepelin test), and after a rest period after mental load application. To determine transient changes in fatigue, the load-induced change was calculated by subtracting the pre-load value from the values after mental load application, after a rest period after mental load application, after application of both loads, and after a rest period therefor. In addition, to determine the effect of test food ingestion alone, ingestion-induced change was calculated by subtracting the pre-load (pre-ingestion) value at week 0 from the pre-load value after 4-week ingestion and after 8-week ingestion."}, "[2]": {"system": "human having a sense of fatigue", "assay": "POMS (Profile of Mood States) analysis", "format": "in vivo", "procedure": "as §1\nUsing the self-administered POMS 2 in Japanese, adult short version (Kanekoshobo, Tokyo, Japan), the subjects answered 35 questions by rating their “current mood” on a 5-point scale (0=not at all; 1=a little; 2=moderately; 3=quite a bit; 4=extremely). Responses to each question were scored according to the POMS scoring system for the seven scales: anger-hostility, confusion-bewilderment, depression-dejection, fatigue-inertia, tension-anxiety, vigor-activity, and friendliness, and the raw scores were converted into TMD scores with a conversion table. The POMS was administered 3 times in total in one day: in the morning of the day of assessment (before load application), after mental load application (calculation load; Uchida-Kraepelin test), and at the end of the day of assessment (after the rest period). To determine transient changes in fatigue, the load-induced change was calculated by subtracting the pre-load value from the values after mental load application and after a rest period therefor. In addition, to determine the effect of test food ingestion alone, ingestion-induced change was calculated by subtracting the pre-load (pre-ingestion) value at week 0 from the pre-load value after 8-week ingestion."}, "[3]": {"system": "salivary secretory immunoglobulin A (sIgA)", "assay": "Measurement of salivary secretory immunoglobulin A (EIA)", "format": "in vivo, human", "description": "Salivary cortisol, which was examined as a biochemical index for a mental load, is used as a stress marker because of simplicity of measurement due to the high correlation with blood cortisol, and known to be increased by an acute mental stress, for example, caused at making a speech in front of others or doing mental calculation or by continuous, high-intensity exercise. Because the salivary cortisol concentration is known to show circadian variation, being high in the morning and then declining as the night approaches, mental load application (calculation load; Uchida-Kraepelin test) was performed in the morning in this study. Salivary secretory immunoglobulin A (sIgA) is an antibody produced by B cells that inhibits the proliferation of pathogens on the mucosa of the oral cavity, airway, intestines, and other organs. It is known that reduction of sIgA in saliva is associated with the development of upper respiratory tract infection and that salivary sIgA concentration decreases under chronic stress and increases in a relaxed state.\nSaliva samples were collected from the subjects in the morning of the day of assessment (before load application) in the same manner as in (1) of [5-2]. The sIgA concentration in each saliva sample was measured with an enzyme immunoassay (EIA) kit (EIA s-IgA Test Kit, Medical & Biological Laboratories Co., Ltd.)."}, "[4]": {"settings": "after application of both loads, after 4-week ingestion, vs control group (FIG. 4)"}, "[5]": {"settings": "after application of both loads, after 8-week ingestion, vs control group (FIG. 4)"}, "[6]": {"settings": "after application of both loads"}, "[7]": {"settings": "after the rest period (after both loads), after 4-week ingestion, vs control group (FIG. 4)"}, "[8]": {"settings": "after the rest period (after both loads), after 8-week ingestion, vs control group (FIG. 4)"}, "[9]": {"settings": "after the rest period (after both loads)"}}, "data": [{"smiles": "CC1=C(/C=C/C(C)=C/C=C/C(C)=C/C=C/C=C(C)/C=C/C=C(C)/C=C/C2=C(C)C(=O)C(O)CC2(C)C)C(C)(C)CC(O)C1=O", "note": "(stereo not drawn) [astaxanthin, 3,3′-dihydroxy-β,β-carotene-4,4′-dione]", "values": [{"measurement": "VAS load-induced change, Clear-headedness", "setting": "[1]; [4]", "value": "marginally significant improvement and enhancement"}, {"measurement": "VAS load-induced change, Mood", "setting": "[1]; [4]", "value": "significant improvement"}, {"measurement": "VAS load-induced change, Clear-headedness", "setting": "[1]; [5]", "value": "marginally significant improvement and enhancement"}, {"measurement": "VAS load-induced change, Concentration", "setting": "[1]; [5]", "value": "marginally significant improvement and enhancement"}, {"measurement": "VAS load-induced change, Feeling of body heaviness", "setting": "[1]; [5]", "value": "significant improvement"}, {"measurement": "VAS load-induced change, Mood", "setting": "[1]; [5]", "value": "marginally significant improvement"}, {"measurement": "VAS load-induced change, Motivation", "setting": "[1]; [5]", "value": "marginally significant enhancement"}, {"measurement": "VAS, Clear-headedness (FIG. 5)", "setting": "[1]; [6]", "value": "marginally significant improvement"}, {"measurement": "VAS, Concentration (FIG. 5)", "setting": "[1]; [6]", "value": "marginally significant improvement"}, {"measurement": "VAS, Feeling of body heaviness (FIG. 5)", "setting": "[1]; [6]", "value": "significant improvement"}, {"measurement": "VAS, Frustration (FIG. 5)", "setting": "[1]; [6]", "value": "resolution of frustration"}, {"measurement": "VAS, Mood (FIG. 5)", "setting": "[1]; [6]", "value": "marginally significant improvement"}, {"measurement": "VAS, Motivation (FIG. 5)", "setting": "[1]; [6]", "value": "marginally significant improvement"}, {"measurement": "VAS load-induced change, Frustration", "setting": "[1]; after mental load application, after 8-week ingestion, vs control group (FIG. 4)", "value": "significant improvement"}, {"measurement": "VAS, Clear-headedness (FIG. 5)", "setting": "[1]; after mental load application", "value": "improvement"}, {"measurement": "VAS, Concentration (FIG. 5)", "setting": "[1]; after mental load application", "value": "improvement"}, {"measurement": "VAS, Feeling of body heaviness (FIG. 5)", "setting": "[1]; after mental load application", "value": "reduction of feeling of body heaviness"}, {"measurement": "VAS, Frustration (FIG. 5)", "setting": "[1]; after mental load application", "value": "significant improvement"}, {"measurement": "VAS, Mood (FIG. 5)", "setting": "[1]; after mental load application", "value": "improvement"}, {"measurement": "VAS, Motivation (FIG. 5)", "setting": "[1]; after mental load application", "value": "improvement"}, {"measurement": "VAS load-induced change, Clear-headedness", "setting": "[1]; [7]", "value": "marginally significant improvement and enhancement"}, {"measurement": "VAS load-induced change, Mood", "setting": "[1]; [7]", "value": "marginally significant improvement"}, {"measurement": "VAS load-induced change, Clear-headedness", "setting": "[1]; [8]", "value": "marginally significant improvement and enhancement"}, {"measurement": "VAS load-induced change, Concentration", "setting": "[1]; [8]", "value": "marginally significant improvement and enhancement"}, {"measurement": "VAS load-induced change, Feeling of body heaviness", "setting": "[1]; [8]", "value": "marginally significant improvement"}, {"measurement": "VAS load-induced change, Frustration", "setting": "[1]; [8]", "value": "significant improvement"}, {"measurement": "VAS, Clear-headedness (FIG. 5)", "setting": "[1]; [9]", "value": "marginally significant improvement"}, {"measurement": "VAS, Concentration (FIG. 5)", "setting": "[1]; [9]", "value": "marginally significant improvement"}, {"measurement": "VAS, Feeling of body heaviness (FIG. 5)", "setting": "[1]; [9]", "value": "marginally significant improvement"}, {"measurement": "VAS, Frustration (FIG. 5)", "setting": "[1]; [9]", "value": "significant improvement"}, {"measurement": "VAS, Mood (FIG. 5)", "setting": "[1]; [9]", "value": "improvement"}, {"measurement": "VAS, Motivation (FIG. 5)", "setting": "[1]; [9]", "value": "improvement"}, {"measurement": "POMS ingestion-induced change, Friendliness (F)", "setting": "[2]; after 8-week ingestion minus pre-ingestion, vs control group (FIG. 6)", "value": "significant high value"}, {"measurement": "POMS load-induced change, Vigor-activity (VA)", "setting": "[2]; after the rest period, after 8-week ingestion, vs control group (FIG. 6)", "value": "marginally significant high value"}, {"measurement": "POMS improvement in Vigor-activity (VA) compared with quercetin/isoquercetin", "setting": "[2]; vs literature: 250 mg quercetin and 100 mg isoquercetin for 42 to 54 days", "value": "larger"}, {"measurement": "POMS improvement in Vigor-activity (VA), AH, FI and CB compared with bonito stock", "setting": "[2]; vs literature: bonito stock morning and evening over two weeks", "value": "larger"}, {"measurement": "salivary sIgA concentration", "setting": "[3]; after 8-week ingestion", "value": "41.9 ± 5.5", "unit": "µg/mL"}, {"measurement": "salivary sIgA concentration", "setting": "[3]; at pre-ingestion (before load application), astaxanthin group", "value": "46.5 ± 8.2", "unit": "µg/mL"}, {"measurement": "change in salivary sIgA concentration", "setting": "[3]; until week 8 of ingestion vs pre-ingestion (FIG. 8)", "value": "no significant change"}]}]}
